Structures are written as SMILES.

The record followed here is article PMC7395176, “Retromer stabilization results in neuroprotection in a model of Amyotrophic Lateral Sclerosis” (Nature Communications, 2020).

Test [1] has as its system SOD1^G93A-transfected Neuro2a cells. Briefly: Lyso-tracker analysis of lysosomes in SOD1G93A-transfected Neuro2a cells. Format: cell-based. The settings on record: 24 h starvation, 10µM. As to the method:
Lysosomal alterations are early events in ALS[7],[56]. We speculated that an impairment of the retromer should alter protease trafficking via CI-MPR, and therefore disrupt lysosomal homeostasis. […] We transfected Neuro2a cells with plasmids encoding the Sh56-RNAi to downregulate VPS35. After 24 h of starvation, we analyzed the lysosomes using Lyso-tracker[58]. We observed enlarged and abnormally distributed lysosomes in cells with VPS35 interference by Sh56 (Supplementary Fig. 12a–c). […] We asked whether the overexpression of SOD1^G93A would also result in similar lysosomal alterations by transfecting Neuro2a cells with plasmids encoding SOD1^G93A, with or without compound 2a.
VPS35 knockdown impairs lysosomal stability
Panels a and b, Neuro2a cells (4x10^4cells/well) transfected with the scramble plasmid (0.5 µg/well, a)or with the VPS35 RNAi plasmids (Sh56, 0.5 µg/well, b) along with plasmid encoding the GFP (0.1 µg/well) and labelled with Lyso-tracker (75 nM). Quantifications of Lyso Tracker-covered areas (%± SD) in individual GFP+ cells were done on merged confocal images and data are shown in c (scramble: n=52 cells, Sh56: n=39 cells, data are collected from 3 independent experiments, p<0.0001). Protein lysates from Neuro2a cells (3x10^5 cells/well) receiving scramble or Sh56 plasmids (2 µg/well for 48h) were labelled for Ubiquitin and β-Actin (d). […]

In test [2] the test system is Vps35, Vps26, and Vps29 mRNAs. Briefly: Real-time PCR of CRC genes in Neuro2a cells. Type of test: cell-based. The settings on record: 10 μM, 48 h. An excerpt: Lumbar spinal tracts dissected from saline-perfused mice or Neuro2A cells were lysed to extract total RNAs using the RNeasy Mini Kit (Qiagen) according to the manufacturer’s recommendations, including DNase (Promega) digestion. We synthetized the cDNA using ThermoScript RT-PCR System (Invitrogen) and Random Hexamer (Invitrogen), according to the manufacturer’s instructions. The LightCycler 480 System (Roche) and LightCycler 480 SYBR Green I Master Mix (Roche) were used for real-time PCR experiments. Normalization was obtained using the housekeeping gene Histone H3:
Compound 2a stabilizes VPS35 levels in Neuro2a cells
A cycloheximide (CHX) chase assay was performed to determine the degradation rate of VPS35 in Neuro2a cells (3x10^5 cells/well). Cells were treated with vehicle or 2a (10 µM) for 24 h, and then chased with CHX (10 µg/mL) for 2, 4 and 8h.
WBs for VPS35 and β-Actin levels. Quantifications of normalized VPS35 levels (means normalized ratios ± SEM versus the time 0) are shown inpanel b (vehicle: n=10 independent wells, 2a: n=8 independent wells obtained from 3 independent experiments; control vs. 2a at 8 hours: p=0.009). c, quantitative real time PCR for Vps35, Vps26 and Vps29 mRNA (Vps35: controls n=8 independent wells; 2a: n=9 independent wells; Vps26 and Vps29: n=9 independent wells/group); data were collected from 3 independent experiments. […]
(In qPCR the cycle at which signal appears reflects the starting amount.)

Test [3] deals with poly-ubiquitinated proteins. Nature of the test: Poly-ubiquitinated proteins in lumbar SC and MNs of treated G93A mice. Type of test: in vivo. The note with it: 10 mg/kg, day 100. The text has this: Ubiquitinated inclusions accumulate in MNs from sALS and fALS patients, and in ALS mice[51]. We characterized poly-ubiquitinated proteins in lumbar SCs protein extracts by 10% denaturating PAGE. Protein extracts from Neuro2a cells treated with the proteasome inhibitor Bortezomib (BTZ), able to increase poly-ubiquitination, were used as an experimental control[52] (Fig. 7a). […] We next scored ubiquitin MFI levels in ventral horn MNs of G93A mice. […] (Fig. 7c and d). We next scored the Golgi apparatus in G93A mice by labeling lumbar sections for the cis-Golgi matrix protein GM130[54]. […] (Fig. 7e).
Fluorescence intensity levels of VPS35, VPS26, CI-MPR, Sortilin, CTSD and Ubiquitin were calculated using NHI-Image J software (US National Institutes of Health) according to the following protocol: stacks of confocal images were used to generate the maximal projections using the Leica Application Suite X (2.0.0.14332) software and then postprocessed by NHI-Image J to crop single NeuN^+ MNs from the ventral horn of the spinal cord. We next performed background (calculated on adjacent slices only receiving secondary antibodies) subtraction for each channel, before applying the NHI-Image J mean filter (with radius 2.0 pixels) to calculate mean NeuN fluorescence levels in individual MNs. […] On this ROI, we measured mean fluoresce levels (MFI) of target proteins.

The target in a further test is VPS35 (Mus musculus, UniProt Q9EQH3+Q9QZ88). The note with it: Neuro2a cells, 10 µM, 48 h, WB.

With `NC(N)=N/N=C/c1cccc(/C=N/N=C(N)N)c1` [compound 2a, phenyl-1,3-bis-guanylhydrazone], the “enlarged lysosomes (Lyso-tracker)” value in test [1] is “significantly reverted this phenotype”. Moreover, in test [2], the “transcription levels of CRC genes (Vps35, Vps26, Vps29 mRNAs)” value is “did not influence”. Moreover, in test [3], the “poly-ubiquitinated proteins in lumbar SC extracts (WB)” value is “substantially reduced” and the “ubiquitin MFI levels in ventral horn MNs” value is on record as “vehicle-treated G93A MNs were higher than in compound 2a-treated G93A mice”. Also, the VPS35 levels result at VPS35 is listed as “increased VPS35 levels”.
